Patent US9777020B2, “Furo-3-carboxamide derivatives and methods of use” (AbbVie Inc., priority 2014, dated 2017)

Biological target: TrkA (Homo sapiens (Human), UniProt P04629)
Assay: TrkA kinase HTRF enzyme inhibition assay
Type: biochemical
Conditions: TrkA pre-incubated with 200 μM ATP
Protocol: TrkA enzyme was obtained from Invitrogen (as catalog numbers PV3144, PV3616, and PV3617, respectively). Enzyme activity was measured in an HTRF® (homogeneous time resolved fluorescence) assay, which detects enzymatic phosphorylation of a biotinylated synthetic peptide substrate (an LCK peptide analog, biotin-ahx-[…], from Genemed Synthesis). Phosphorylation is assessed by HTRF® in the presence of an anti-phosphotyrosine antibody conjugated to Eu^3+ cryptate (Cisbio) as donor fluorophore, and streptavidin conjugated to allophycocyanin (ProZyme) as acceptor fluorophore. The HTRF® signal was detected at two different wavelengths (620 nm and 665 nm) which were used to calculate the fluorescence ratio.
TrkA enzyme was titrated to a concentration optimized to ensure accurate measurement of the initial reaction rate. To allow the TrkA enzyme to undergo activation and auto-phosphorylation, a 20 minute pre-incubation with ATP was carried out (at twice the final targeted enzyme and ATP concentration) prior to addition of test compound and the peptide substrate.
TrkA in vitro assays were performed by pre-incubating TrkA (2-10 nM) with ATP (200 μM) for 20 minutes at ambient temperature in 50 mM HEPES pH 7.4, 10 mM MgCl2, 2 mM MnCl2, 100 μM Na3VO4, 1 mM dithiothreitol, 0.01% BSA (bovine serum albumin). Then, to the activated Trk enzyme mixture was added the test compound in 2% dimethyl sulfoxide. After 10 minutes, the peptide substrate (125 nM) was added. After 1 hour, enzyme reactions were terminated by addition of equal reaction volumes of detection/stop reagent (containing 0.2 μg/mL anti-phosphotyrosine monoclonal antibody labeled with europium from Cisbio (catalog#PT66-K), and 4 μg/mL PhycoLink® Streptavidin-Allophycocyanin conjugate from ProZyme (catalog#PJ25S) in 60 mM EDTA in 40 mM HEPES pH 7.4, 480 mM KF, 0.01% Tween® 20 and 0.1% BSA bovine serum albumin) Reaction plates were stored at 4° C. overnight before reading the fluorescence ratio signal on a PerkinElmer EnVision™ fluorescence detector. Individual reaction wells were stopped at time points to obtain reaction rates. The test inhibitor compounds were assayed in duplicate, at half-log serial dilutions over a range of concentrations (e.g. starting at 50 μM or 5 μM as the high compound concentration). The percent Trk enzyme inhibition was calculated from the initial rates of the inhibited reactions relative to the uninhibited control. IC50 values were calculated by fitting the inhibition percent to the concentration of inhibitor [I] in the assay in equation 1 below, to solve for the IC50. Inhibition %=100[I]/([I]+[IC50]) equation 1

TrkA, sequence (P04629 33-796): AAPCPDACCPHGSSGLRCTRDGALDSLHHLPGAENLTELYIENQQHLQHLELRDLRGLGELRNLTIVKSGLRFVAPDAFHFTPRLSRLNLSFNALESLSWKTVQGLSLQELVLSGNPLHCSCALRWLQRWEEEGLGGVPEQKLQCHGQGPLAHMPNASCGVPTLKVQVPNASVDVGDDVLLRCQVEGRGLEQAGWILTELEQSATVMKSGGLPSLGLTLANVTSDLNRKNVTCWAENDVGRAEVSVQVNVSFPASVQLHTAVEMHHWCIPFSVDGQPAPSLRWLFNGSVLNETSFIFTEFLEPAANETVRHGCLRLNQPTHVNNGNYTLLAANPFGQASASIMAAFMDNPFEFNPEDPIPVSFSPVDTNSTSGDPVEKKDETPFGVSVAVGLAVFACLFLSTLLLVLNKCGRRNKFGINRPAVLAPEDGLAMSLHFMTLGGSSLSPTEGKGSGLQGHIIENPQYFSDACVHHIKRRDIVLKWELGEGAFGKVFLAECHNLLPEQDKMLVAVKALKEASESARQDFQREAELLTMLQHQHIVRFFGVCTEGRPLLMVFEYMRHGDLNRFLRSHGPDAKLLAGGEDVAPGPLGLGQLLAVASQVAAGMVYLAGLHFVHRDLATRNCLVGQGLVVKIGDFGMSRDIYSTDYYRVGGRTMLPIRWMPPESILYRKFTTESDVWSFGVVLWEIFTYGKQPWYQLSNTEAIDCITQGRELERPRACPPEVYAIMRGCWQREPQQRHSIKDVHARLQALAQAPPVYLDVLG

Row | SMILES | IC50
1 | COc1ccc(NC(=O)c2coc3c2C(=O)N(C)CC3)cn1 [Example 69, N-(6-methoxypyridin-3-yl)-5-methyl-4-oxo-4,5,6,7-tetrahydrofuro[3,2-c]pyridine-3-carboxamide] | 4340 nM
2 | CCOc1ccc(NC(=O)c2coc3c2C(=O)N(C)CC3)cn1 [Example 72, N-(6-ethoxypyridin-3-yl)-5-methyl-4-oxo-4,5,6,7-tetrahydrofuro[3,2-c]pyridine-3-carboxamide] | 2480 nM
3 | Cc1n[nH]c2ccc(NC(=O)c3coc4c3C(=O)N(C)CC4)cc12 [Example 73, 5-methyl-N-(3-methyl-1H-indazol-5-yl)-4-oxo-4,5,6,7-tetrahydrofuro[3,2-c]pyridine-3-carboxamide] | 1080 nM
4 | CN1CCc2occ(C(=O)Nc3ccc(C(F)(F)F)cn3)c2C1=O [Example 76, 5-methyl-4-oxo-N-[5-(trifluoromethyl)pyridin-2-yl]-4,5,6,7-tetrahydrofuro[3,2-c]pyridine-3-carboxamide] | 1530 nM
5 | COC(=O)c1ccc(Oc2nc(N3CCN(C)CC3)ccc2NC(=O)c2coc3c2C(=O)NCCC3)cc1 [Example 82, methyl 4-{[6-(4-methylpiperazin-1-yl)-3-{[(4-oxo-5,6,7,8-tetrahydro-4H-furo[3,2-c]azepin-3-yl)carbonyl]amino}pyridin-2-yl]oxy}benzoate] | 682 nM
6 | CN1CCN(c2ccc(NC(=O)c3coc4c3C(=O)NCCC4)c(Oc3ccc(CO)cc3)n2)CC1 [Example 83, N-{2-[4-(hydroxymethyl)phenoxy]-6-(4-methylpiperazin-1-yl)pyridin-3-yl}-4-oxo-5,6,7,8-tetrahydro-4H-furo[3,2-c]azepine-3-carboxamide] | 496 nM

The remaining compounds from weak to strong by IC50, led by results:

Row | IC50 | SMILES
7 | 3670 nM | CN1CCc2occ(C(=O)Nc3cccc(C#N)c3)c2C1=O [Example 71, N-(3-cyanophenyl)-5-methyl-4-oxo-4,5,6,7-tetrahydrofuro[3,2-c]pyridine-3-carboxamide]
8 | 2590 nM | Cc1cc2[nH]ncc2cc1NC(=O)c1coc2c1C(=O)N(C)CC2 [Example 74, 5-methyl-N-(6-methyl-1H-indazol-5-yl)-4-oxo-4,5,6,7-tetrahydrofuro[3,2-c]pyridine-3-carboxamide]
9 | 2490 nM | CN1CCc2occ(C(=O)Nc3ccc(Cl)cn3)c2C1=O [Example 70, N-(5-chloropyridin-2-yl)-5-methyl-4-oxo-4,5,6,7-tetrahydrofuro[3,2-c]pyridine-3-carboxamide]
10 | 2050 nM | CN1CCc2occ(C(=O)Nc3nc4ccccc4s3)c2C1=O [Example 75, N-(1,3-benzothiazol-2-yl)-5-methyl-4-oxo-4,5,6,7-tetrahydrofuro[3,2-c]pyridine-3-carboxamide]
11 | 367 nM | CN1CCc2occ(C(=O)Nc3cc4cn[nH]c4cc3Cl)c2C1=O [Example 77, N-(6-chloro-1H-indazol-5-yl)-5-methyl-4-oxo-4,5,6,7-tetrahydrofuro[3,2-c]pyridine-3-carboxamide]
12 | 236 nM | Cc1nc2cc(NC(=O)c3coc4c3C(=O)N(C)CC4)ccc2[nH]1 [Example 78, 5-methyl-N-(2-methyl-1H-benzimidazol-5-yl)-4-oxo-4,5,6,7-tetrahydrofuro[3,2-c]pyridine-3-carboxamide]
13 | 67.7 nM | COc1cc(N2CCN(C(=O)N3CCCC3)CC2)ccc1NC(=O)c1coc2c1C(=O)NCC2 [Example 80, N-{2-methoxy-4-[4-(pyrrolidin-1-ylcarbonyl)piperazin-1-yl]phenyl}-4-oxo-4,5,6,7-tetrahydrofuro[3,2-c]pyridine-3-carboxamide]
14 | 65.8 nM | COc1cc(N2CCN(S(=O)(=O)N(C)C)CC2)ccc1NC(=O)c1coc2c1C(=O)NCC2 [Example 81, N-{4-[4-(dimethylsulfamoyl)piperazin-1-yl]-2-methoxyphenyl}-4-oxo-4,5,6,7-tetrahydrofuro[3,2-c]pyridine-3-carboxamide]
15 | 44.7 nM | COc1cc(N2CCN(C(=O)CC(C)(C)C)CC2)ccc1NC(=O)c1coc2c1C(=O)NCC2 [Example 79, N-{4-[4-(3,3-dimethylbutanoyl)piperazin-1-yl]-2-methoxyphenyl}-4-oxo-4,5,6,7-tetrahydrofuro[3,2-c]pyridine-3-carboxamide]
